This note sets out measurements from ChEMBL document CHEMBL2021896, “A novel pyrimidine derivatives with aryl urea, thiourea and sulfonamide moieties: synthesis, anti-inflammatory and antimicrobial evaluation” (2012).

Values after ≈ are worked out from the molar mass of the structure shown. Active and inactive are the calls of the source. No cut-off for these calls is given here.

Experiment [1] relates to Fusarium solani. As to the kind of experiment: Antifungal activity against Fusarium solani up to 200 ug/ml by agar well diffusion method. In kind it is functional, organism-based. A general note: In agar diffusion tests the substance spreads into inoculated agar from a disc or well.
The test system of experiment [2] is Aspergillus flavus. The experiment can be described thus: Antifungal activity against Aspergillus flavus by agar well diffusion method. The experiment is classed as functional.
Experiment [3] has as its system Bacillus subtilis. The experiment can be described thus: Antibacterial activity against Bacillus subtilis up to 200 ug/ml by agar well diffusion method. The experiment is classed as functional, organism-based.
Experiment [4] has as its system Salmonella typhimurium. The experiment can be described thus: Antibacterial activity against Salmonella typhimurium up to 200 ug/ml by agar well diffusion method. In kind it is functional, organism-based. Particulars: Salmonella enterica subsp. enterica serovar Typhimurium.
The subject of experiment [5] is Staphylococcus aureus. As to the kind of experiment: Antibacterial activity against Staphylococcus aureus up to 200 ug/ml by agar well diffusion method. In kind it is functional, organism-based.
Experiment [6] has as its system Escherichia coli. As to the kind of experiment: Antibacterial activity against Escherichia coli up to 200 ug/ml by agar well diffusion method. The experiment is classed as functional, organism-based.
For experiment [7], the system named is Candida albicans. As to the kind of experiment: Antifungal activity against Candida albicans by agar well diffusion method. In kind it is functional.
In experiment [8] the test system is Aspergillus niger. The experiment can be described thus: Antifungal activity against Aspergillus niger by agar well diffusion method. In kind it is functional.
Experiment [9] has as its system THP-1. The experiment can be described thus: Antiinflammatory activity in human PMA-stimulated THP1 cells assessed as inhibition of LPS-induced TNFalpha production at 10 uM treated 30 mins before LPS challenge measured after 24 hrs by ELISA. The experiment is classed as functional.
The test system of experiment [10] is THP-1. As to the kind of experiment: Antiinflammatory activity in human PMA-stimulated THP1 cells assessed as inhibition of LPS-induced IL-6 production at 10 uM treated 30 mins before LPS challenge measured after 24 hrs by ELISA. In kind it is functional.
Experiment [11] has as its system Aspergillus niger. As to the kind of experiment: Antifungal activity against Aspergillus niger up to 200 ug/ml by agar well diffusion method. The experiment is classed as functional, organism-based.
Experiment [12] has as its system Aspergillus flavus. As to the kind of experiment: Antifungal activity against Aspergillus flavus up to 200 ug/ml by agar well diffusion method. In kind it is functional, organism-based.
The test system of experiment [13] is Candida albicans. As to the kind of experiment: Antifungal activity against Candida albicans up to 200 ug/ml by agar well diffusion method. In kind it is functional, organism-based.
Experiment [14] deals with Bacillus subtilis. As to the kind of experiment: Antibacterial activity against Bacillus subtilis by agar well diffusion method. In kind it is functional.
The test system of experiment [15] is Salmonella typhimurium. The experiment can be described thus: Antibacterial activity against Salmonella typhimurium by agar well diffusion method. The following applies: Salmonella enterica. In kind it is functional, Salmonella enterica subsp. enterica serovar Typhimurium.
For experiment [16], the system named is Escherichia coli. The experiment can be described thus: Antibacterial activity against Escherichia coli by agar well diffusion method. In kind it is functional.
For experiment [17], the system named is Staphylococcus aureus. As to the kind of experiment: Antibacterial activity against Staphylococcus aureus by agar well diffusion method. The experiment is classed as functional.
Experiment [18] has as its system Fusarium solani. The experiment can be described thus: Antifungal activity against Fusarium solani by agar well diffusion method. In kind it is functional.
The test system of experiment [19] is THP-1. As to the kind of experiment: Antiinflammatory activity in human PMA-stimulated THP1 cells assessed as inhibition of LPS-induced TNFalpha production at 1 uM treated 30 mins before LPS challenge measured after 24 hrs by ELISA. In kind it is functional. Background: An ELISA detects its analyte on a solid surface through an enzyme-linked reagent.
Experiment [20] relates to THP-1. The experiment can be described thus: Antiinflammatory activity in human PMA-stimulated THP1 cells assessed as inhibition of LPS-induced IL-6 production at 1 uM treated 30 mins before LPS challenge measured after 24 hrs by ELISA. The experiment is classed as functional.

In general, MIC refers to the lowest concentration that inhibits growth of the organism. A lower MIC goes with a more susceptible organism. As usually defined, the inhibition is the percentage by which the read-out fell short of the control. For `O=[N+]([O-])c1ccc(-c2cc(Cl)ncn2)cc1`, the result in the experiment with Fusarium solani [1], in the experiment with Bacillus subtilis [3], in the experiment on Salmonella typhimurium [4], with Staphylococcus aureus [5] and with Escherichia coli [6] was inactive. Moreover, the minimum inhibitory concentration (MIC) against Aspergillus flavus [2], against Candida albicans [7] and in the experiment with Aspergillus niger [8] was 90 µg/mL (≈ 382 µM) throughout. Moreover, the inhibition at 10 µM in the experiment with THP-1 [9] and in the experiment on THP-1 [10] was 0% throughout.
As to `Cc1ccccc1NC(=S)Nc1ccc(-c2cc(Nc3cccc(C(F)(F)F)c3)ncn2)cc1`, the outcome in the experiment with Fusarium solani [1], in the experiment on Bacillus subtilis [3], in the experiment on Aspergillus niger [11], with Salmonella typhimurium [4], in the experiment with Staphylococcus aureus [5] and in the experiment on Escherichia coli [6] was inactive. Besides, the result in the experiment on Aspergillus flavus [12] and in the experiment with Candida albicans [13] was inactive. For the same compound, the inhibition at 10 µM in the experiment with THP-1 [9] and in the experiment with THP-1 [10] was 0% throughout.
Take `O=S(=O)(Nc1ccc(-c2cc(Nc3cccc(C(F)(F)F)c3)ncn2)cc1)c1ccc(OC(F)(F)F)cc1`: the outcome in the experiment on Fusarium solani [1], in the experiment on Aspergillus niger [11], in the experiment on Aspergillus flavus [12] and in the experiment on Candida albicans [13] was inactive. In addition, the minimal inhibitory concentration (MIC) against Bacillus subtilis [14] came out at 20 µg/mL (≈ 36.1 µM); against Salmonella typhimurium [15], 10 µg/mL (≈ 18 µM); with Escherichia coli [16] it was 15 µg/mL (≈ 27.1 µM); against Staphylococcus aureus [17], 15 µg/mL (≈ 27.1 µM). Also, the inhibition at 10 µM in the experiment with THP-1 [9] stood at 0%; in the experiment with THP-1 [10] it was 8%.
For `CC(C)c1ccc(NC(=O)Nc2ccc(-c3cc(Nc4cccc(C(F)(F)F)c4)ncn3)cc2)cc1`, the result in the experiment with Fusarium solani [1], with Aspergillus niger [11], in the experiment with Aspergillus flavus [12] and in the experiment on Candida albicans [13] was inactive. Also, the minimal inhibitory concentration (MIC) was 40 µg/mL (≈ 81.4 µM) with Bacillus subtilis [14], 40 µg/mL (≈ 81.4 µM) with Salmonella typhimurium [15], 20 µg/mL (≈ 40.7 µM) in the experiment with Escherichia coli [16] and 25 µg/mL (≈ 50.9 µM) against Staphylococcus aureus [17]. For the same compound, the values for the inhibition at 10 µM in the experiment with THP-1 [9] and in the experiment with THP-1 [10] were 71% and 90%, respectively.
Consider `FC(F)(F)c1cccc(Nc2cc(-c3ccc(NC(=S)Nc4ccc(Cl)cc4)cc3)ncn2)c1`, for which the outcome in the experiment on Aspergillus niger [11], with Aspergillus flavus [12] and with Candida albicans [13] was inactive. Besides, the MIC was 90 µg/mL (≈ 180 µM) against Fusarium solani [18]; 35 µg/mL (≈ 70 µM) against Bacillus subtilis [14]; 30 µg/mL (≈ 60 µM) in the experiment on Salmonella typhimurium [15]; 30 µg/mL (≈ 60 µM) against Escherichia coli [16]; 35 µg/mL (≈ 70 µM) against Staphylococcus aureus [17]. Further, the figures for the inhibition at 10 µM in the experiment on THP-1 [9] and in the experiment on THP-1 [10] were 23% and 28%, respectively.
On to `CC1(C)OB(c2ccc([N+](=O)[O-])cc2)OC1(C)C`, for which the result in the experiment with Fusarium solani [1], in the experiment on Bacillus subtilis [3], in the experiment on Aspergillus niger [11], with Salmonella typhimurium [4], in the experiment with Staphylococcus aureus [5] and in the experiment on Escherichia coli [6] was inactive. Besides, the result in the experiment on Aspergillus flavus [12] was inactive. The minimum inhibitory concentration (MIC) against Candida albicans [7] was determined as 90 µg/mL (≈ 361 µM). The inhibition at 10 µM in the experiment with THP-1 [9] and in the experiment with THP-1 [10] was 0% throughout.
On to `C[C@@H]1C[C@H]2[C@@H]3CCC4=CC(=O)C=C[C@]4(C)[C@@]3(F)[C@@H](O)C[C@]2(C)[C@@]1(O)C(=O)CO` [DEXAMETHASONE], for which the inhibition at 1 µM in the experiment with THP-1 [19] is 72%; in the experiment on THP-1 [20], 86%.
As for `Cc1cccc(S(=O)(=O)Nc2ccc(-c3cc(Nc4cccc(C(F)(F)F)c4)ncn3)cc2)c1`, the result in the experiment with Fusarium solani [1], in the experiment on Bacillus subtilis [3], in the experiment on Aspergillus niger [11], in the experiment with Aspergillus flavus [12] and in the experiment with Candida albicans [13] was inactive. In addition, the MIC against Salmonella typhimurium [15], in the experiment on Escherichia coli [16] and against Staphylococcus aureus [17] was 90 µg/mL (≈ 186 µM) each time. For the same compound, the inhibition at 10 µM in the experiment on THP-1 [9] is 14%; with THP-1 [10] it was 25%.
As to `O=[N+]([O-])c1ccc(-c2cc(Nc3cccc(C(F)(F)F)c3)ncn2)cc1`, the result in the experiment on Fusarium solani [1], in the experiment on Bacillus subtilis [3], in the experiment on Aspergillus niger [11], in the experiment on Salmonella typhimurium [4], in the experiment with Staphylococcus aureus [5] and in the experiment on Escherichia coli [6] was inactive. Moreover, the outcome in the experiment with Aspergillus flavus [12] and with Candida albicans [13] was inactive. Further, the inhibition at 10 µM in the experiment with THP-1 [9] and with THP-1 [10] was 0% each time.
